The record followed here is ChEMBL document CHEMBL1201862, “PubChem BioAssay data set” (2004).

Test systems include DU-145; HCC 2998; HCT-15; M14; NCI-H23; PC-3; SK-MEL-28; SK-MEL-2; SK-MEL-5; SK-OV-3; UO-31; A549; COLO 205; KM12; MDA-N; MOLT-4; NCI-H460; SR; SW-620.
Common to all, as to assay: growth of human tumour cells (NCI), 48 h

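Cells were grown in 96-well plates and exposed to each compound for 48 hours at five concentrations; endpoints were interpolated linearly between bracketing concentrations, or set to the highest concentration if not reached. GI50: concentration for 50% inhibition of growth.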 The source made the active and inactive calls. No stated cut-off is given here; in the data, active = GI50 up to about 1.1 µM and inactive = higher.

For `O=C(CSCC(=O)N/N=C/c1cccc(C(F)(F)F)c1)N/N=C/c1cccc(C(F)(F)F)c1`, the GI50 in the test with DU-145 was > 100 µM (inactive); in the test with HCC 2998 it was > 100 µM (inactive); in the test with HCT-15, > 100 µM; in the test with M14 it was > 100 µM (inactive); in the test with NCI-H23, > 100 µM (inactive); in the test with PC-3, > 100 µM (inactive). The GI50 in the test with SK-MEL-28, in the test with SK-MEL-2, with SK-MEL-5, in the test on SK-OV-3 and in the test with UO-31 was > 100 µM (inactive) in each case.

With `O=C1OC[C@@H]2Cc3cc4c(cc3[C@H](c3ccc5c(c3)OCO5)[C@@H]12)OCO4`, the GI50 in the test on A549 was > 25 µM (inactive); with COLO 205, > 25 µM (inactive); in the test with DU-145, > 25 µM (inactive); in the test with HCC 2998, > 25 µM (inactive); with HCT-15 it was 11 µM; with KM12, > 25 µM (inactive). In addition, the GI50 in the test with M14 was > 25 µM (inactive); with MDA-N it was 12 µM (inactive); with MOLT-4 it was 4.11 µM (inactive); with NCI-H23, > 25 µM (inactive); with NCI-H460, > 25 µM (inactive); with SK-MEL-28 it was > 25 µM (inactive). In addition, the GI50 with SK-MEL-2 is > 25 µM (inactive); with SK-MEL-5 it was 16 µM (inactive); with SR, 24 µM (inactive); with UO-31, 15.6 µM (inactive).

In the case of `CN(C)CCNC(=O)c1cccc2c(NC(CS)C(=O)O)c3ccccc3[n+](C)c12` (stereo not given), the GI50 is 62.1 µM (inactive) in the test with A549; 43.9 µM (inactive) in the test on COLO 205; 37.6 µM (inactive) with DU-145; 50 µM (inactive) with HCC 2998; > 100 µM with HCT-15; > 100 µM (inactive) in the test on KM12. Besides, the GI50 with M14 was > 100 µM (inactive); in the test on MOLT-4 it was 41.9 µM (inactive); in the test on NCI-H23, 89.5 µM (inactive); in the test on NCI-H460 it was 45.5 µM (inactive); with PC-3 it was 49 µM (inactive); in the test with SK-MEL-28 it was > 100 µM (inactive). Besides, the GI50 in the test on SK-MEL-2 was > 100 µM (inactive); in the test on SK-MEL-5, 47 µM (inactive); with SK-OV-3 it was > 100 µM (inactive); in the test with SR it was 22.7 µM (inactive); in the test on SW-620, 39.7 µM (inactive); in the test on UO-31 it was 71.8 µM (inactive).

On to `O=c1c(-c2ccccc2)nnc2n(Cc3ccccc3)c3ccccc3n12`, for which the GI50 was > 100 µM (inactive) in the test with A549; > 100 µM (inactive) in the test with COLO 205; > 100 µM (inactive) with DU-145; > 100 µM (inactive) in the test with HCC 2998; > 100 µM with HCT-15; > 100 µM (inactive) with KM12. For the same compound, the GI50 in the test on M14, in the test with MDA-N, in the test on MOLT-4, with NCI-H23, in the test on NCI-H460 and with SK-MEL-28 was > 100 µM (inactive) each time. In addition, the GI50 in the test on SK-MEL-2, in the test on SK-MEL-5, with SR, in the test on SW-620 and in the test on UO-31 was > 100 µM (inactive) each time.

With `O=C(O)CCSC(=O)Nc1ccccc1F`, the GI50 is > 100 µM (inactive) in the test on A549; > 100 µM (inactive) in the test on COLO 205; > 100 µM (inactive) in the test on HCC 2998; > 100 µM in the test on HCT-15; > 100 µM (inactive) in the test with KM12; > 100 µM (inactive) in the test with M14. For the same compound, the GI50 with MOLT-4, with NCI-H23, in the test on NCI-H460, with SK-MEL-28, with SK-MEL-2 and in the test on SR was > 100 µM (inactive) each time. Besides, the GI50 in the test on SW-620 and with UO-31 was > 100 µM (inactive) in each case.

Take `CC1=C(C(=O)NNC(=O)CC#N)CC(C(=O)NNC(=O)CC#N)=C(C)N1`: the GI50 with A549 was > 100 µM (inactive); in the test on COLO 205, > 100 µM (inactive); in the test on DU-145 it was > 100 µM (inactive); in the test on HCC 2998, > 100 µM (inactive); in the test on HCT-15, > 100 µM; with KM12, > 100 µM (inactive). Further, the GI50 with M14, in the test on MDA-N, in the test with MOLT-4, with NCI-H23, with NCI-H460 and with SK-MEL-28 was > 100 µM (inactive) throughout. Further, the GI50 in the test on SK-MEL-2, in the test with SK-MEL-5, in the test on SK-OV-3, in the test with SW-620 and in the test on UO-31 was > 100 µM (inactive) each time.

Consider `CCOC(=O)/C(=C\NC(C)(C)CO)c1nc2ccccc2[nH]1`, for which the GI50 with A549 is 86.5 µM (inactive); in the test on COLO 205, 58.9 µM (inactive); with DU-145 it was > 100 µM (inactive); in the test on HCC 2998 it was 46.2 µM (inactive); in the test on HCT-15 it was 81.7 µM; with KM12 it was 75 µM (inactive). Moreover, the GI50 in the test on M14 was > 100 µM (inactive); in the test with MDA-N, > 100 µM (inactive); in the test with MOLT-4, 43.3 µM (inactive); with NCI-H23 it was 67.8 µM (inactive); with NCI-H460, 36.1 µM (inactive); in the test on SK-MEL-28, 77.8 µM (inactive). Further, the GI50 was 26.7 µM (inactive) with SK-MEL-5; > 100 µM (inactive) in the test on SK-OV-3; 47.3 µM (inactive) with SR; > 100 µM (inactive) in the test on SW-620; 0.426 µM (active) with UO-31.

As to `CCCCNC(=S)Nc1nc(C(=O)NNS(=O)(=O)c2ccccc2)cs1`, the GI50 was 40.3 µM (inactive) in the test on A549; 17.9 µM (inactive) with COLO 205; 35.5 µM (inactive) with DU-145; 30.5 µM (inactive) with HCC 2998; 36.2 µM with HCT-15; 39.7 µM (inactive) with KM12. Besides, the GI50 with M14 was 40.1 µM (inactive); in the test with MOLT-4 it was 34.8 µM (inactive); in the test with NCI-H23, 44 µM (inactive); in the test on PC-3 it was 29 µM (inactive); with SK-MEL-2, 22.6 µM (inactive); in the test with SK-MEL-5, 17 µM (inactive). For the same compound, the GI50 with SK-OV-3 is 36.6 µM (inactive); in the test on SR it was 41.1 µM (inactive); in the test with UO-31, 26.1 µM (inactive).

As to `Cc1c(C(=O)CC(=O)C(=O)Nc2c(C(C)C)cccc2C(C)C)[n+]([O-])c2ccccc2[n+]1[O-]`, the GI50 in the test on A549 was 15.7 µM (inactive); in the test with COLO 205, 3.76 µM (inactive); with HCC 2998, 5.14 µM (inactive); with HCT-15 it was 2.79 µM; in the test with KM12, 3.47 µM (inactive); in the test on M14 it was 3.4 µM (inactive). The GI50 in the test with MOLT-4 was 2.9 µM (inactive); with NCI-H23, 13.2 µM (inactive); with NCI-H460, 2.62 µM (inactive); in the test on SK-MEL-28 it was 13.7 µM (inactive); in the test with SK-MEL-2, 11.4 µM (inactive); in the test with SK-MEL-5, 10.4 µM (inactive). Besides, the values for the GI50 in the test with SK-OV-3, in the test on SW-620 and in the test with UO-31 were 16.7 µM (inactive), 3.87 µM (inactive) and 16.6 µM (inactive), respectively.
